Source: patent publication US8993574B2, “Pyrrole antifungal agents” (F2G Ltd, priority 2008, dated 2015)
≈ marks a conversion by molar mass, not a printed value.

Experiments:
Type in all cases: cell-based
Aspergillus terreus AT4 [1] = experiment: MIC, YAG medium; settings: Aspergillus terreus, 24 h at 35° C, MIC banded into grades, read-out: MIC grade, A. terreus
Description: (§1) Between 1 and 5 mgs of compound were accurately weighed out into a sterile Eppendorf tube. The compound was dissolved in DMSO to give a solution containing 5 mg/mL. Tubes were stored at −20° C. until required.
(§2) On the day of testing thawed solutions were vortex mixed to ensure homogeneity. 30 μL of solution was removed and added to 570 μL of sterile water in a separate sterile Eppendorf. The thoroughly mixed solution was used to prepare a series of doubling dilutions in water, in a deep well plate. Thirteen replicate plates were prepared using a Minitrak by aspirating 20 μL from each well into eleven clear polystyrene 96 well plates.
(§3) Spores of Aspergillus spp. (Aspergillus fumigatus [two strains], Aspergillus terreus [two strains], Aspergillus niger and Aspergillus flavus) were harvested from cultures grown on Sabarauds agar for 5 days, and resuspended in PBS/Tween 80 to approx 1×10^7 cfu/mL. Each organism suspension was diluted in YAG medium (1% glucose, 1% ammonium chloride and 0.5% yeast extract) to 0.5−2×10^4 cfu/mL. 80 μL of an organism suspension was added to each well of the plate containing drug dilutions.
(§4) This produced MIC plates with a drug range 50-0.05 mg/L and organism inocula of 1−2×10^4 cfu/mL for Aspergillus spp. All plates were incubated for 24 h at 35° C. Growth was assessed by monitoring the optical density at 485 nm for each well. The MIC of a compound is the lowest drug concentration that inhibits growth of an organism by >70% compared with a drug free control. MICs are recorded as mg/L. In cases where the MIC of an organism is […] mg/L the MIC is repeated using a concentration range of 0.5-0.0005 mg/L.
(§5) The following organisms were tested: Aspergillus flavus, Aspergillus fumigatus AF293 and AF210, Aspergillus niger, Aspergillus terreus AT4 and AT49, Candida albicans, Candida glabrata, Candida krusei, Candida parapsilosis and Candida tropicalis.

[2] = tested on: Aspergillus fumigatus AF210; experiment: MIC, YAG medium; settings: Aspergillus fumigatus, 24 h at 35° C, MIC banded into grades, read-out: MIC grade, A. fumigatus 210
Description: as §1, §2, §3, §4, §5

Aspergillus niger [3] = experiment: MIC, YAG medium; settings: Aspergillus niger, 24 h at 35° C, MIC banded into grades, read-out: MIC grade, A. niger
Description: as §1, §2, §3, §4, §5

[4] = tested on: Aspergillus fumigatus AF293; experiment: MIC, YAG medium; settings: Aspergillus fumigatus, 24 h at 35° C, MIC banded into grades, read-out: MIC grade, A. fumigatus
Description: as §1, §2, §3, §4, §5

Aspergillus terreus AT49 [5] = experiment: MIC, YAG medium; settings: Aspergillus terreus, 24 h at 35° C, MIC banded into grades, read-out: MIC grade, A. terreus 49
Description: as §1, §2, §3, §4, §5

Aspergillus flavus [6] = experiment: MIC, YAG medium; settings: Aspergillus flavus, 24 h, 24 h at 35° C, MIC banded into grades, read-out: MIC grade, A. flavus
Description: as §1, §2, §3, §4, §5

Aspergillus terreus AT4 [7] = experiment: MIC, RPMI medium; settings: Aspergillus terreus, AT4, MIC banded into grades, read-out: MIC grade, A. terreus
Description: as §1, §2
(§6) Assays were also performed in RPMI medium for both Aspergillus spp. (strains described above) and Candida spp. (Candida albicans, Candida glabrata, Candida krusei, Candida parapsilosis and Candida tropicalis). To perform MIC tests in this medium, dilutions of compounds are prepared in microtitre plates as described above. Fungal strains to be tested are grown and harvested in an identical manner to that described above, and each organism suspension was diluted in RPMI medium, containing 2% glucose and 0.135 M MOPS buffer (pH 7.0) to 0.5-2×10^4 cfu/mL, rather than in YAG medium. 80 μL of an organism suspension was added to each well of the plate containing drug dilutions.
(§7) This produced MIC plates with a drug range 50-0.05 mg/L and organism inocula of 1−2×10^4 cfu/mL. All plates were incubated for 24-48 h at 35° C. Growth was assessed by monitoring the optical density at 485 nm for each well. The MIC of a compound is the lowest drug concentration that inhibits growth of an organism by >80% compared with a drug free control.
as §5

[8] = tested on: Aspergillus fumigatus AF210; experiment: MIC, RPMI medium; settings: Aspergillus fumigatus, AF210, MIC banded into grades, read-out: MIC grade, A. fumigatus 210
Description: as §1, §2, §6, §7, §5

Aspergillus niger [9] = experiment: MIC, RPMI medium; settings: Aspergillus niger, MIC banded into grades, read-out: MIC grade, A. niger
Description: as §1, §2, §6, §7, §5

[10] = tested on: Aspergillus fumigatus AF293; experiment: MIC, RPMI medium; settings: Aspergillus fumigatus, AF293, MIC banded into grades, read-out: MIC grade, A. fumigatus
Description: as §1, §2, §6, §7, §5

Aspergillus terreus AT49 [11] = experiment: MIC, RPMI medium; settings: Aspergillus terreus, AT49, MIC banded into grades, read-out: MIC grade, A. terreus 49
Description: as §1, §2, §6, §7, §5

Aspergillus flavus [12] = experiment: MIC, RPMI medium; settings: Aspergillus flavus, MIC banded into grades, read-out: MIC grade, A. flavus
Description: as §1, §2, §6, §7, §5

Row | SMILES | MIC (Aspergillus terreus AT4 [1]) [µg/mL] | MIC [2] [µg/mL] | MIC (Aspergillus niger [3]) [µg/mL] | MIC [4] [µg/mL] | MIC (Aspergillus terreus AT49 [5]) [µg/mL] | MIC (Aspergillus flavus [6]) [µg/mL] | MIC (Aspergillus terreus AT4 [7]) [µg/mL] | MIC [8] [µg/mL] | MIC (Aspergillus niger [9]) [µg/mL] | MIC [10] [µg/mL] | MIC (Aspergillus terreus AT49 [11]) [µg/mL] | MIC (Aspergillus flavus [12]) [µg/mL]
1 | COCC(C)N1CCN(c2ccc(NC(=O)C(=O)c3c(-c4ccccc4)cc(C)n3C)cc2)CC1 (stereo not drawn) [Example 151, 2-(1,5-Dimethyl-3-phenyl-1H-pyrrol-2-yl)-N-{4-[4-(2-methoxy-1-methyl-ethyl)-piperazin-1-yl]-phenyl}-2-oxo-acetamide] | < 1 | < 1 | < 1 | < 1 | < 1 | < 1 | < 1 | < 1 | < 1 | < 1 | < 1 | < 1
2 | Cc1cc(C)nc(N2CCN(c3ccc(NC(=O)C(=O)c4[nH]c(C)cc4-c4ccccc4)cc3)CC2)c1 [Example 50, N-{4-[4-(4,6-Dimethyl-pyridin-2-yl)-piperazin-1-yl]-phenyl}-2-(5-methyl-3-phenyl-1H-pyrrol-2-yl)-2-oxo-acetamide] | < 1 | < 1 | < 1 | < 1 | < 1 | < 1 | < 1 | < 1 | < 1 | < 1 | < 1 | < 1
3 | CC(=O)NCCn1c(C)cc(-c2ccccc2)c1C(=O)C(=O)Nc1ccc(N2CCN(c3cc(C)cc(C)n3)CC2)cc1 [Example 65, 2-[1-(2-Acetylamino-ethyl)-5-methyl-3-phenyl-1H-pyrrol-2-yl]-N-{4-[4-(4,6-dimethyl-pyridin-2-yl)-piperazin-1-yl]-phenyl}-2-oxo-acetamide] | > 10 | > 10 | > 10 | > 10 | > 10 | > 10 | > 10 | > 10 | > 10 | > 10 | > 10 | > 10
4 | COCC=CCn1c(C)cc(-c2ccccc2)c1C(=O)C(=O)Nc1ccc(N2CCN(c3cc(C)cc(C)n3)CC2)cc1 [Example 141, N-{4-[4-(4,6-Dimethyl-pyridin-2-yl)-piperazin-1-yl]-phenyl}-2-[1-(4-methoxy-but-2-enyl)-5-methyl-3-phenyl-1H-pyrrol-2-yl]-2-oxo-acetamide] | 1 to 10 (≈ 1.73 to 17.3 µM) | < 1 | 1 to 10 (≈ 1.73 to 17.3 µM) | < 1 | 1 to 10 (≈ 1.73 to 17.3 µM) | 1 to 10 (≈ 1.73 to 17.3 µM) | > 10 | > 10 | > 10 | > 10 | > 10 | > 10
5 | CSCCn1c(C)cc(-c2ccccc2)c1C(=O)C(=O)Nc1ccc(N2CCN(c3cc(C)cc(C)n3)CC2)cc1 [Example 133, N-{4-[4-(4,6-Dimethyl-pyridin-2-yl)-piperazin-1-yl]-phenyl}-2-[5-methyl-1-(2-methylsulfanyl-ethyl)-3-phenyl-1H-pyrrol-2-yl]-2-oxo-acetamide] | < 1 | < 1 | < 1 | < 1 | < 1 | 1 to 10 (≈ 1.76 to 17.6 µM) | 1 to 10 (≈ 1.76 to 17.6 µM) | < 1 | < 1 | < 1 | 1 to 10 (≈ 1.76 to 17.6 µM) | > 10
6 | Cc1cc(C)nc(N2CCN(c3ccc(NC(=O)C(=O)c4c(-c5ccccc5)cc(C)n4Cc4cccnc4)cc3)CC2)c1 [Example 93, N-{4-[4-(4,6-Dimethyl-pyridin-2-yl)-piperazin-1-yl]-phenyl}-2-(5-methyl-3-phenyl-1-pyridin-3-ylmethyl-1H-pyrrol-2-yl)-2-oxo-acetamide] | 1 to 10 (≈ 1.71 to 17.1 µM) | < 1 | < 1 | < 1 | 1 to 10 (≈ 1.71 to 17.1 µM) | 1 to 10 (≈ 1.71 to 17.1 µM) | > 10 | 1 to 10 (≈ 1.71 to 17.1 µM) | 1 to 10 (≈ 1.71 to 17.1 µM) | 1 to 10 (≈ 1.71 to 17.1 µM) | > 10 | > 10
7 | Cc1cc(C)nc(N2CCN(c3ccc(NC(=O)C(=O)c4c(-c5ccccc5)cc(C)n4C)cc3O)CC2)c1 [Example 22, 2-(1,5-Dimethyl-3-phenyl-1H-pyrrol-2-yl)-N-{4-[4-(4,6-dimethyl-pyridin-2-yl)-piperazin-1-yl]-3-hydroxy-phenyl}-2-oxo-acetamide] | < 1 | < 1 | < 1 | < 1 | < 1 | < 1 | < 1 | < 1 | < 1 | < 1 | < 1 | < 1

Next, values leading:

Row | MIC (Aspergillus terreus AT4 [1]) [µg/mL] | MIC [2] [µg/mL] | MIC (Aspergillus niger [3]) [µg/mL] | MIC [4] [µg/mL] | MIC (Aspergillus terreus AT49 [5]) [µg/mL] | MIC (Aspergillus flavus [6]) [µg/mL] | MIC (Aspergillus terreus AT4 [7]) [µg/mL] | MIC [8] [µg/mL] | MIC (Aspergillus niger [9]) [µg/mL] | MIC [10] [µg/mL] | MIC (Aspergillus terreus AT49 [11]) [µg/mL] | MIC (Aspergillus flavus [12]) [µg/mL] | SMILES
8 | 1 to 10 (≈ 2.71 to 27.1 µM) | 1 to 10 (≈ 2.71 to 27.1 µM) | > 10 | 1 to 10 (≈ 2.71 to 27.1 µM) | 1 to 10 (≈ 2.71 to 27.1 µM) | < 1 | 1 to 10 (≈ 2.71 to 27.1 µM) | > 10 | > 10 | > 10 | > 10 | 1 to 10 (≈ 2.71 to 27.1 µM) | Cc1cc(-c2ccccc2)c(C(=O)C(=O)Nc2cccc3ccncc23)n1C [Example 43, 2-(1,5-Dimethyl-3-phenyl-1H-pyrrol-2-yl)-N-isoquinolin-8-yl-2-oxo-acetamide]
9 | > 10 | 1 to 10 (≈ 2.42 to 24.2 µM) | > 10 | 1 to 10 (≈ 2.42 to 24.2 µM) | > 10 | > 10 | > 10 | > 10 | > 10 | 1 to 10 (≈ 2.42 to 24.2 µM) | > 10 | > 10 | COCCn1c(C)cc(-c2ccccc2)c1C(=O)C(=O)Nc1cccc2ccncc12 [Example 42, N-Isoquinolin-8-yl-2-[1-(2-methoxy-ethyl)-5-methyl-3-phenyl-1H-pyrrol-2-yl]-2-oxo-acetamide]
10 | 1 to 10 (≈ 2.42 to 24.2 µM) | 1 to 10 (≈ 2.42 to 24.2 µM) | > 10 | 1 to 10 (≈ 2.42 to 24.2 µM) | 1 to 10 (≈ 2.42 to 24.2 µM) | 1 to 10 (≈ 2.42 to 24.2 µM) | > 10 | > 10 | > 10 | > 10 | > 10 | > 10 | COCCn1c(C)cc(-c2ccccc2)c1C(=O)C(=O)Nc1cccc2cnccc12 [Example 30, N-Isoquinolin-5-yl-2-[1-(2-methoxy-ethyl)-5-methyl-3-phenyl-1H-pyrrol-2-yl]-2-oxo-acetamide]
11 | < 1 | < 1 | < 1 | < 1 | < 1 | < 1 | < 1 | < 1 | < 1 | < 1 | < 1 | < 1 | C=C(C)CN1CCN(c2ccc(NC(=O)C(=O)c3c(-c4ccccc4)cc(C)n3C)c(F)c2)CC1 [Example 108, 2-(1,5-Dimethyl-3-phenyl-1H-pyrrol-2-yl)-N-{2-fluoro-4-[4-(2-methyl-allyl)-piperazin-1-yl]-phenyl}-2-oxo-acetamide]
